Measured values as given in the NIST ThermoML archive (doi:10.1016/j.jct.2007.11.011).
± gives the expanded uncertainty stated by the source.

Experiment: xn = mol fraction of the nth substance listed
Settings: Liquid

CCOS(=O)(=O)[O-].CCn1cc[n+](C)c1 [1-ethyl-3-methylimidazolium ethyl sulfate] + CO
mass density [kg/m3]
Settings | 100 kPa | 2500 kPa | 5000 kPa | 10000 kPa | 15000 kPa | 20000 kPa | 25000 kPa | 30000 kPa | 35000 kPa
303.15 K, x1 = 0.04781 | – | – | – | – | – | 892.79 ± 0.95 | 896.28 ± 1 | 899.65 ± 1.1 | 902.86 ± 1.2
303.15 K, x1 = 0.1026 | – | – | – | – | – | 965.4 ± 0.57 | 968.54 ± 0.58 | 971.57 ± 0.59 | 974.42 ± 0.59
303.15 K, x1 = 0.1977 | – | – | – | – | – | 1047.97 ± 0.65 | 1050.68 ± 0.7 | 1053.34 ± 0.76 | 1055.86 ± 0.83
303.15 K, x1 = 0.2432 | – | – | – | – | – | 1076.28 ± 0.78 | 1078.9 ± 0.87 | 1081.44 ± 0.96 | 1083.87 ± 1.1
303.15 K, x1 = 0.3026 | – | – | – | – | – | 1106.82 ± 0.95 | 1109.29 ± 1.1 | 1111.72 ± 1.2 | 1114.04 ± 1.4
303.15 K, x1 = 0.3887 | – | – | – | – | 1137.67 ± 1 | 1140.05 ± 1.2 | 1142.39 ± 1.4 | 1144.7 ± 1.6 | 1146.89 ± 1.7
303.15 K, x1 = 0.485 | – | – | – | – | 1165.38 ± 1.2 | 1167.67 ± 1.4 | 1169.9 ± 1.6 | 1172.11 ± 1.8 | 1174.2 ± 2
303.15 K, x1 = 0.589 | – | – | – | – | 1187.91 ± 1.3 | 1190.1 ± 1.5 | 1192.25 ± 1.8 | 1194.38 ± 2 | 1196.4 ± 2.2
303.15 K, x1 = 0.7289 | – | – | – | – | 1210.81 ± 1.4 | 1212.92 ± 1.7 | 1214.99 ± 1.9 | 1217.04 ± 2.2 | 1219 ± 2.5
303.15 K, x1 = 0.8521 | – | – | – | – | 1225.51 ± 1.5 | 1227.56 ± 1.8 | 1229.58 ± 2.1 | 1231.59 ± 2.4 | 1233.49 ± 2.6
303.15 K, x1 = 0.9397 | – | – | – | – | 1234.67 ± 1.6 | 1236.7 ± 1.9 | 1238.71 ± 2.1 | 1240.68 ± 2.5 | 1242.56 ± 2.8
313.15 K, x1 = 0.04781 | 868.71 ± 0.61 | 870.87 ± 0.65 | 873 ± 0.7 | 877.12 ± 0.8 | 881.03 ± 0.9 | 884.83 ± 0.99 | 888.46 ± 1.1 | 891.58 ± 1.2 | 896.52 ± 1.3
313.15 K, x1 = 0.1026 | 943.67 ± 0.51 | 945.44 ± 0.52 | 947.28 ± 0.54 | 950.87 ± 0.56 | 954.31 ± 0.59 | 957.65 ± 0.61 | 960.89 ± 0.62 | 964.01 ± 0.64 | 967.07 ± 0.64
313.15 K, x1 = 0.1977 | 1028.79 ± 0.49 | 1030.21 ± 0.5 | 1031.77 ± 0.51 | 1034.78 ± 0.54 | 1037.72 ± 0.57 | 1040.6 ± 0.61 | 1043.41 ± 0.66 | 1046.12 ± 0.71 | 1048.8 ± 0.77
313.15 K, x1 = 0.2432 | 1057.64 ± 0.52 | 1059.08 ± 0.54 | 1060.59 ± 0.56 | 1063.49 ± 0.61 | 1066.28 ± 0.68 | 1069.03 ± 0.75 | 1071.73 ± 0.83 | 1074.34 ± 0.91 | 1076.92 ± 1
313.15 K, x1 = 0.3026 | 1088.94 ± 0.56 | 1090.22 ± 0.59 | 1091.62 ± 0.63 | 1094.33 ± 0.71 | 1097 ± 0.81 | 1099.6 ± 0.91 | 1102.15 ± 1 | 1104.62 ± 1.2 | 1107.08 ± 1.3
313.15 K, x1 = 0.3887 | 1122.96 ± 0.61 | 1124.22 ± 0.66 | 1125.52 ± 0.71 | 1128.06 ± 0.83 | 1130.57 ± 0.97 | 1133.05 ± 1.1 | 1135.46 ± 1.3 | 1137.8 ± 1.5 | 1140.13 ± 1.7
313.15 K, x1 = 0.485 | 1151.19 ± 0.65 | 1152.35 ± 0.72 | 1153.6 ± 0.79 | 1156.03 ± 0.94 | 1158.42 ± 1.1 | 1160.76 ± 1.3 | 1163.07 ± 1.5 | 1165.3 ± 1.7 | 1167.55 ± 1.9
313.15 K, x1 = 0.589 | 1174.15 ± 0.69 | 1175.21 ± 0.76 | 1176.41 ± 0.85 | 1178.75 ± 1 | 1181.04 ± 1.2 | 1183.3 ± 1.5 | 1185.51 ± 1.7 | 1187.68 ± 1.9 | 1189.83 ± 2.2
313.15 K, x1 = 0.7289 | 1197.48 ± 0.73 | 1198.52 ± 0.82 | 1199.65 ± 0.91 | 1201.89 ± 1.1 | 1204.09 ± 1.4 | 1206.26 ± 1.6 | 1208.39 ± 1.9 | 1210.48 ± 2.2 | 1212.56 ± 2.4
313.15 K, x1 = 0.8521 | 1212.41 ± 0.76 | 1213.23 ± 0.85 | 1214.31 ± 0.96 | 1216.48 ± 1.2 | 1218.62 ± 1.5 | 1220.72 ± 1.8 | 1222.81 ± 2 | 1224.83 ± 2.3 | 1226.88 ± 2.6
313.15 K, x1 = 0.9397 | 1221.68 ± 0.78 | 1222.7 ± 0.88 | 1223.82 ± 0.99 | 1225.96 ± 1.3 | 1228.06 ± 1.5 | 1230.16 ± 1.8 | 1232.21 ± 2.1 | 1234.23 ± 2.4 | 1236.23 ± 2.7
323.15 K, x1 = 0.04781 | 859.88 ± 0.62 | 862.14 ± 0.67 | 864.43 ± 0.73 | – | – | – | – | – | –
323.15 K, x1 = 0.1026 | 935.3 ± 0.52 | 937.17 ± 0.53 | 939.08 ± 0.55 | – | – | – | – | – | –
323.15 K, x1 = 0.1977 | 1020.88 ± 0.49 | 1022.39 ± 0.49 | – | – | – | – | – | – | –
323.15 K, x1 = 0.2432 | 1049.97 ± 0.51 | 1051.46 ± 0.53 | – | – | – | – | – | – | –
323.15 K, x1 = 0.3026 | 1081.45 ± 0.55 | 1082.65 ± 0.58 | – | – | – | – | – | – | –
323.15 K, x1 = 0.3887 | 1115.61 ± 0.6 | 1116.83 ± 0.64 | – | – | – | – | – | – | –
323.15 K, x1 = 0.485 | 1143.95 ± 0.64 | 1145.15 ± 0.7 | – | – | – | – | – | – | –
323.15 K, x1 = 0.589 | 1167 ± 0.68 | 1168.12 ± 0.75 | – | – | – | – | – | – | –
323.15 K, x1 = 0.7289 | 1190.46 ± 0.72 | 1191.53 ± 0.8 | – | – | – | – | – | – | –
323.15 K, x1 = 0.8521 | 1205.38 ± 0.75 | 1206.3 ± 0.84 | – | – | – | – | – | – | –
323.15 K, x1 = 0.9397 | 1214.87 ± 0.76 | 1215.9 ± 0.86 | – | – | – | – | – | – | –
